From ChEMBL document CHEMBL1153480, “Study on the potential anti-cancer activity of phosphonium and ammonium-based ionic liquids” (2009)

Key:
Format in all cases: functional
HT-29 [1] = experiment: Cytotoxicity against human HT-29 cells by SRB assay; details: read-out: LC50 (the source's name)
BT-549 [2] = experiment: Cytotoxicity against human BT549 cells by SRB assay; details: read-out: LC50 (the source's name)
SK-MEL-2 = experiment: cells; details: Homo sapiens
Description: Growth inhibition of human SK-MEL-2 cells assessed as drug level required for 50% reduction in net protein increase by SRB assay relative to control

MOLT-4 [3] = experiment: cells; details: Homo sapiens
Description: Growth inhibition of human MOLT4 cells assessed as cell growth at 10 uM by SRB assay

UACC-257 = experiment: cells; details: Homo sapiens
Description: Growth inhibition of human UACC257 cells assessed as cell growth at 10 uM by SRB assay

ACHN = experiment: cells; details: Homo sapiens
Description: Growth inhibition of human ACHN cells assessed as drug level required for 50% reduction in net protein increase by SRB assay relative to control

KM12 = experiment: cells; details: Homo sapiens
Description: Growth inhibition of human KM12 cells assessed as drug level required for 50% reduction in net protein increase by SRB assay relative to control

786-0 [4] = experiment: cells; details: Homo sapiens
Description: Growth inhibition of human 786-0 cells assessed as cell growth at 10 uM by SRB assay

SNB-75 [5] = experiment: cells; details: Homo sapiens
Description: Growth inhibition of human SNB75 cells assessed as cell growth at 10 uM by SRB assay

K562 = experiment: cells; details: Homo sapiens
Description: Growth inhibition of human K562 cells assessed as drug level required for 50% reduction in net protein increase by SRB assay relative to control

SK-MEL-5 = experiment: cells; details: Homo sapiens
Description: Growth inhibition of human SK-MEL-5 cells assessed as drug level required for 50% reduction in net protein increase by SRB assay relative to control

MDA-MB-435 [6] = experiment: cells; details: Homo sapiens
Description: Growth inhibition of human MDA-MB-435 cells assessed as cell growth at 10 uM by SRB assay

SK-OV-3 [7] = experiment: cells; details: Homo sapiens
Description: Growth inhibition of human SKOV3 cells assessed as drug level required for 50% reduction in net protein increase by SRB assay relative to control

HOP-92 = experiment: cells; details: Homo sapiens
Description: Growth inhibition of human HOP92 cells assessed as drug level required for 50% reduction in net protein increase by SRB assay relative to control

M14 [8] = experiment: cells; details: Homo sapiens
Description: Growth inhibition of human M14 cells assessed as cell growth at 10 uM by SRB assay

MOLT-4 [9] = experiment: Cytotoxicity against human MOLT4 cells by SRB assay; details: read-out: LC50 (the source's name)
HCT-116 = experiment: cells; details: Homo sapiens
Description: Growth inhibition of human HCT116 cells assessed as drug level required for 50% reduction in net protein increase by SRB assay relative to control

NCI-H23 [10] = experiment: cells; details: Homo sapiens
Description: Growth inhibition of human NCI-H23 cells assessed as drug level required for 50% reduction in net protein increase by SRB assay relative to control

SK-MEL-28 = experiment: cells; details: Homo sapiens
Description: Growth inhibition of human SK-MEL-28 cells assessed as cell growth at 10 uM by SRB assay

MDA-MB-435 [11] = experiment: cells; details: Homo sapiens; remark: listed apart in the source
Description: Growth inhibition of human MDA-MB-435 cells assessed as drug level required for 50% reduction in net protein increase by SRB assay relative to control

NCI-H322M = experiment: cells; details: Homo sapiens
Description: Growth inhibition of human NCI-H322M cells assessed as cell growth at 10 uM by SRB assay

HCT-15 = experiment: cells; details: Homo sapiens
Description: Growth inhibition of human HCT15 cells assessed as drug level required for 50% reduction in net protein increase by SRB assay relative to control

OVCAR-4 [12] = experiment: cells; details: Homo sapiens
Description: Growth inhibition of human OVCAR4 cells assessed as cell growth at 10 uM by SRB assay

NCI-H226 = experiment: cells; details: Homo sapiens
Description: Growth inhibition of human NCI-H226 cells assessed as cell growth at 10 uM by SRB assay

SNB-75 [13] = experiment: Cytotoxicity against human SNB75 cells by SRB assay; details: read-out: LC50 (the source's name)
SK-OV-3 [14] = experiment: cells; details: Homo sapiens; remark: listed apart in the source
Description: Growth inhibition of human SKOV3 cells assessed as cell growth at 10 uM by SRB assay

cells [15] = details: Homo sapiens, Hs-578T
Description: Growth inhibition of human Hs 578T cells assessed as cell growth at 10 uM by SRB assay

PC-3 = experiment: cells; details: Homo sapiens
Description: Growth inhibition of human PC3 cells assessed as cell growth at 10 uM by SRB assay

LOX IMVI = experiment: cells; details: Homo sapiens
Description: Growth inhibition of human LOXIMVI cells assessed as cell growth at 10 uM by SRB assay

NCI/ADR-RES [16] = experiment: cells; details: Homo sapiens
Description: Growth inhibition of human NCI/ADR-RES cells assessed as drug level required for 50% reduction in net protein increase by SRB assay relative to control

HL-60(TB) = experiment: cells; details: Homo sapiens
Description: Growth inhibition of human HL-60(TB) cells assessed as drug level required for 50% reduction in net protein increase by SRB assay relative to control

cells [17] = details: Homo sapiens, CAKI
Description: Growth inhibition of human CAKI cells assessed as cell growth at 10 uM by SRB assay

OVCAR-4 [18] = experiment: Cytotoxicity against human OVCAR4 cells by SRB assay; details: read-out: LC50 (the source's name)
SNB-19 [19] = experiment: cells; details: Homo sapiens
Description: Growth inhibition of human SNB19 cells assessed as drug level required for 50% reduction in net protein increase by SRB assay relative to control

NCI/ADR-RES [20] = experiment: cells; details: Homo sapiens; remark: listed apart in the source
Description: Growth inhibition of human NCI/ADR-RES cells assessed as cell growth at 10 uM by SRB assay

CCRF-CEM = experiment: cells; details: Homo sapiens
Description: Growth inhibition of human CCRF-CEM cells assessed as cell growth at 10 uM by SRB assay

HT-29 [21] = experiment: cells; details: Homo sapiens
Description: Growth inhibition of human HT-29 cells assessed as cell growth at 10 uM by SRB assay

SN12C = experiment: cells; details: Homo sapiens
Description: Growth inhibition of human SN12C cells assessed as drug level required for 50% reduction in net protein increase by SRB assay relative to control

TK-10 = experiment: cells; details: Homo sapiens
Description: Growth inhibition of human TK10 cells assessed as drug level required for 50% reduction in net protein increase by SRB assay relative to control

RXF 393 = experiment: cells; details: Homo sapiens
Description: Growth inhibition of human RFX393 cells assessed as drug level required for 50% reduction in net protein increase by SRB assay relative to control

SF-295 [22] = experiment: cells; details: Homo sapiens
Description: Growth inhibition of human SF295 cells assessed as cell growth at 10 uM by SRB assay

T47D = experiment: cells; details: Homo sapiens
Description: Growth inhibition of human T47D cells assessed as cell growth at 10 uM by SRB assay

786-0 [23] = experiment: cells; details: Homo sapiens; remark: listed apart in the source
Description: Growth inhibition of human 786-0 cells assessed as drug level required for 50% reduction in net protein increase by SRB assay relative to control

SW-620 = experiment: cells; details: Homo sapiens
Description: Growth inhibition of human SW620 cells assessed as cell growth at 10 uM by SRB assay

COLO 205 = experiment: Cytotoxicity against human COLO205 cells by SRB assay; details: read-out: LC50 (the source's name)
MOLT-4 [24] = experiment: cells; details: Homo sapiens; remark: listed apart in the source
Description: Growth inhibition of human MOLT4 cells assessed as drug level required for 50% reduction in net protein increase by SRB assay relative to control

SF-295 [25] = experiment: Cytotoxicity against human SF295 cells by SRB assay; details: read-out: LC50 (the source's name)
MDA-MB-468 = experiment: Cytotoxicity against human MDA-MB-468 cells by SRB assay; details: read-out: LC50 (the source's name)
NCI-H522 [26] = experiment: cells; details: Homo sapiens
Description: Growth inhibition of human NCI-H522 cells assessed as cell growth at 10 uM by SRB assay

U-251 [27] = experiment: cells; details: Homo sapiens
Description: Growth inhibition of human U251 cells assessed as drug level required for 50% reduction in net protein increase by SRB assay relative to control

cells [28] = details: Homo sapiens, Hs-578T; read-out: LC50 (the source's name)
Description: Cytotoxicity against human Hs 578T cells by SRB assay

UO-31 = experiment: Cytotoxicity against human UO31 cells by SRB assay; details: read-out: LC50 (the source's name)
A498 = experiment: cells; details: Homo sapiens
Description: Growth inhibition of human A498 cells assessed as cell growth at 10 uM by SRB assay

SF-539 = experiment: cells; details: Homo sapiens
Description: Growth inhibition of human SF539 cells assessed as drug level required for 50% reduction in net protein increase by SRB assay relative to control

IGROV-1 = experiment: cells; details: Homo sapiens
Description: Growth inhibition of human IGROV1 cells assessed as drug level required for 50% reduction in net protein increase by SRB assay relative to control

OVCAR-8 = experiment: cells; details: Homo sapiens
Description: Growth inhibition of human OVCAR8 cells assessed as cell growth at 10 uM by SRB assay

RPMI-8226 = experiment: cells; details: Homo sapiens
Description: Growth inhibition of human RPMI8226 cells assessed as cell growth at 10 uM by SRB assay

HCC 2998 = experiment: cells; details: Homo sapiens
Description: Growth inhibition of human HCC2998 cells assessed as drug level required for 50% reduction in net protein increase by SRB assay relative to control

MDA-MB-435 [29] = experiment: Cytotoxicity against human MDA-MB-435 cells by SRB assay; details: read-out: LC50 (the source's name)
U-251 [30] = experiment: cells; details: Homo sapiens; remark: listed apart in the source
Description: Growth inhibition of human U251 cells assessed as cell growth at 10 uM by SRB assay

HOP-62 = experiment: cells; details: Homo sapiens
Description: Growth inhibition of human HOP62 cells assessed as cell growth at 10 uM by SRB assay

M14 [31] = experiment: cells; details: Homo sapiens; remark: listed apart in the source
Description: Growth inhibition of human M14 cells assessed as drug level required for 50% reduction in net protein increase by SRB assay relative to control

SR = experiment: Cytotoxicity against human SR cells by SRB assay; details: read-out: LC50 (the source's name)
SF-268 = experiment: cells; details: Homo sapiens
Description: Growth inhibition of human SF268 cells assessed as cell growth at 10 uM by SRB assay

UACC-62 = experiment: cells; details: Homo sapiens
Description: Growth inhibition of human UACC62 cells assessed as drug level required for 50% reduction in net protein increase by SRB assay relative to control

MDA-MB-231 = experiment: cells; details: Homo sapiens
Description: Growth inhibition of human MDA-MB-231 cells assessed as cell growth at 10 uM by SRB assay

BT-549 [32] = experiment: cells; details: Homo sapiens
Description: Growth inhibition of human BT549 cells assessed as drug level required for 50% reduction in net protein increase by SRB assay relative to control

SNB-19 [33] = experiment: Cytotoxicity against human SNB19 cells by SRB assay; details: read-out: LC50 (the source's name)
NCI-H23 [34] = experiment: cells; details: Homo sapiens; remark: listed apart in the source
Description: Growth inhibition of human NCI-H23 cells assessed as cell growth at 10 uM by SRB assay

NCI-H522 [35] = experiment: Cytotoxicity against human NCI-H522 cells by SRB assay; details: read-out: LC50 (the source's name)
MCF7 = experiment: cells; details: Homo sapiens
Description: Growth inhibition of human MCF7 cells assessed as cell growth at 10 uM by SRB assay

## CCCCCCCCCCCCCCCCCCPCCCCCCCCCCCCCC (stereo unspecified) [MONO(OCTADECYL(TETRADECYL)PHOSPHONIUM) MONO(HEXAFLUOROPHOSPHATE(V)) MONO(TETRAFLUOROBORATE)]
HT-29 [1]
  CC50: > 100000 nM
BT-549 [2]
  CC50: > 100000 nM
SK-MEL-2
  GI50: 81 nM
MOLT-4 [3]
  growth at 10 µM: 7.02%
UACC-257
  growth at 10 µM: -59%
ACHN
  GI50: 244 nM
KM12
  GI50: 59 nM
786-0 [4]
  growth at 10 µM: -74%
SNB-75 [5]
  growth at 10 µM: -85.2%
K562
  GI50: 38 nM
SK-MEL-5
  GI50: 74 nM
MDA-MB-435 [6]
  growth at 10 µM: -59.3%
SK-OV-3 [7]
  GI50: 331 nM
HOP-92
  GI50: 38 nM
M14 [8]
  growth at 10 µM: -67.2%
MOLT-4 [9]
  CC50: > 100000 nM
HCT-116
  GI50: 84 nM
NCI-H23 [10]
  GI50: 236 nM
SK-MEL-28
  growth at 10 µM: -69.3%
MDA-MB-435 [11]
  GI50: 50 nM
NCI-H322M
  growth at 10 µM: -79.2%
HCT-15
  GI50: 339 nM
OVCAR-4 [12]
  growth at 10 µM: -71.3%
NCI-H226
  growth at 10 µM: -68.1%
SNB-75 [13]
  CC50: > 100000 nM
SK-OV-3 [14]
  growth at 10 µM: -68.7%
Cells [15]
  growth at 10 µM: -44.2%
PC-3
  growth at 10 µM: -32.7%
LOX IMVI
  growth at 10 µM: 0.43%
NCI/ADR-RES [16]
  GI50: 947 nM
HL-60(TB)
  GI50: 39 nM
Cells [17]
  growth at 10 µM: -70.2%
OVCAR-4 [18]
  CC50: > 100000 nM
SNB-19 [19]
  GI50: 97 nM
NCI/ADR-RES [20]
  growth at 10 µM: -77.3%
CCRF-CEM
  growth at 10 µM: 23.3%
HT-29 [21]
  growth at 10 µM: -45%
SN12C
  GI50: 62 nM
TK-10
  GI50: 234 nM
RXF 393
  GI50: 352 nM
SF-295 [22]
  growth at 10 µM: -50%
T47D
  growth at 10 µM: -38.5%
786-0 [23]
  GI50: 211 nM
SW-620
  growth at 10 µM: -43.8%
COLO 205
  CC50: > 100000 nM
MOLT-4 [24]
  GI50: 90 nM
SF-295 [25]
  CC50: > 100000 nM
MDA-MB-468
  CC50: > 100000 nM
NCI-H522 [26]
  growth at 10 µM: -50.9%
U-251 [27]
  GI50: 37 nM
Cells [28]
  CC50: > 100000 nM
UO-31
  CC50: > 100000 nM
A498
  growth at 10 µM: -75.6%
SF-539
  GI50: 234 nM
IGROV-1
  GI50: 316 nM
OVCAR-8
  growth at 10 µM: -18.1%
RPMI-8226
  growth at 10 µM: 27.2%
HCC 2998
  GI50: 297 nM
MDA-MB-435 [29]
  CC50: > 100000 nM
U-251 [30]
  growth at 10 µM: -6.5%
HOP-62
  growth at 10 µM: -65.6%
M14 [31]
  GI50: 87 nM
SR
  CC50: > 100000 nM
SF-268
  growth at 10 µM: -49%
UACC-62
  GI50: 61 nM
MDA-MB-231
  growth at 10 µM: -74.5%
BT-549 [32]
  GI50: 94 nM
SNB-19 [33]
  CC50: > 100000 nM
NCI-H23 [34]
  growth at 10 µM: -61%
NCI-H522 [35]
  CC50: > 100000 nM
MCF7
  growth at 10 µM: -40.8%
